Results as given in US20210024542A1 (Torcept Therapeutics, Inc., priority 2018, published 2021).
pEC50, pIC50: −log10 of the molar value. Where two headings read alike, the source gives them in different places.

Assays:
U-138MG = test: OncoPanel cell proliferation assay, U-138MG; format: cell-based, human
Description: (§1) Cells were grown in RPMI 1640, 10% FBS, 2 mM L-alanyl-L-glutamine, 1 mM Na pyruvate, or a special medium. Cells were seeded into 384-well plates and incubated in a humidified atmosphere of 5% CO2 at 37° C. Compounds were added the day following cell seeding. At the same time, a time zero untreated cell plate was generated. After a 3-day incubation period, cells were fixed and stained to allow fluorescence imaging of nuclei. Compounds (1 mM stock solutions) were serially diluted in half-log steps from the highest test concentration ([…]), and assayed over 10 concentrations with a maximum assay concentration of 0.1% DMSO. Automated fluorescence microscopy was carried out using a Molecular Devices ImageXpress Micro XL high-content imager, and images were collected with a 4× objective. 16-bit TIFF images were acquired and analyzed with MetaXpress 5.1.0.41 software.
(§2) Cell proliferation was measured by the fluorescence intensity of an incorporated nuclear dye. The output is referred to as the relative cell count, where the measured nuclear intensity is transformed to percent of control (POC) using the following formula: […]
(§3) Cellular response parameters were calculated using nonlinear regression to a sigmoidal single-site dose response model:
(§4) Where y is a response measured at concentration x, A and B are the lower and upper limits of the response, C is the concentration at the response midpoint (EC50), and D is the Hill Slope (Ref. 1).
(§5) EC50 is the test compound concentration at the curve inflection point or half the effective response (parameter C of the fitted curve solution). GI50 is the concentration needed to reduce the observed growth by half (midway between the curve maximum and the time zero value). “Cell Count Activity Area” is an estimate of the integrated area above the curve (Barretina, et al. The Cancer Cell Line Encyclopedia enables predictive modelling of anticancer drug sensitivity. Nature 483: 603-607). […] In rare instances, values <0 or >10 may be observed. […] Curve-fitting, calculations, and report generation was performed using a custom data reduction engine and MathIQ based software (AIM).

SW579 = test: OncoPanel cell proliferation assay, SW579; format: cell-based, human; details: for Relative cell count (%) Mean: SW579
Description: as §1, §2, §3, §4, §5

Hs 852.T = test: OncoPanel cell proliferation assay, Hs 852.T; format: cell-based, human
Description: as §1, §2, §3, §4, §5

AsPC-1 = test: OncoPanel cell proliferation assay, AsPC-1; details: for Relative cell count (%) Mean: AsPC-1
Description: Cells were seeded into 384-well plates and incubated in a humidified atmosphere of 5% CO2 at 37° C. Compounds were added the day following cell seeding. At the same time, a time zero untreated cell plate was generated. After a 3-day incubation period, cells were fixed and stained to allow fluorescence imaging of nuclei. Compounds (1 mM stock solutions) were serially diluted in half-log steps from the highest test concentration (1 micromol), and assayed over 10 concentrations with a maximum assay concentration of 0.1% DMSO. Automated fluorescence microscopy was carried out using a Molecular Devices ImageXpress Micro XL high-content imager, and images were collected with a 4× objective. 16-bit TIFF images were acquired and analyzed with MetaXpress 5.1.0.41 software.
GI50 is the concentration needed to reduce the observed growth by half (midway between the curve maximum and the time zero value). […] In rare instances, values <0 or >10 may be observed. […] Curve-fitting, calculations, and report generation was performed using a custom data reduction engine and MathIQ based software (AIM).

786-O = test: OncoPanel cell proliferation assay, 786-O; format: cell-based, human; details: for Relative cell count (%) Mean: 786-0
Description: as §1, §2, §3, §4, §5

CEM-C1 = test: OncoPanel cell proliferation assay, CEM-C1; format: cell-based, human; details: for Relative cell count (%) Mean: CEM-C1
Description: as §1, §2, §3, §4, §5

CO[C@H]1C[C@@H]2CC[C@@H](C)[C@@](O)(O2)C(=O)C(=O)N2CCCC[C@H]2C(=O)O[C@H]([C@H](C)C[C@@H]2C[C@@H]3C[C@H]2C[C@H]3O)CC(=O)[C@H](C)/C=C(\C)[C@@H](O)[C@@H](OC)C(=O)[C@H](C)C[C@H](C)/C=C/C=C/C=C/1C [Formula I, 37R-hydroxynorbornylrapamycin]
pEC50 (U-138MG; Homo sapiens, U138-MG, 72 h, U-138MG, 3-day incubation, read-out: Cell Count EC50): 10.01 | GI50 (U-138MG; Homo sapiens, U138-MG, 72 h, U-138MG, 3-day incubation, read-out: Cell Count GI50): 0.54 nM | pIC50 (U-138MG; Homo sapiens, U138-MG, 72 h, U-138MG, 3-day incubation, read-out: Cell Count IC50): < 6.00 | pEC50 (U-138MG; Homo sapiens, U138-MG, Table 4 summary, U-138 MG, Glioblastoma, read-out: EC50): 10.01 | Cell Count Activity Area (U-138MG; U-138MG, scale 0-10): 3.00 | Relative cell count (%) Mean (U-138MG; U-138MG, 1.00E+00 microM): 62.8% | Relative cell count (%) Mean (U-138MG; U-138MG, 1.00E−01 microM): 66.3% | Relative cell count (%) Mean (U-138MG; U-138MG, 1.00E−02 microM): 71.3% | Relative cell count (%) Mean (U-138MG; U-138MG, 1.00E−03 microM): 70.6% | Relative cell count (%) Mean (U-138MG; U-138MG, 1.01E−04 microM): 82.1% | Relative cell count (%) Mean (U-138MG; U-138MG, 3.16E−01 microM): 64.5% | Relative cell count (%) Mean (U-138MG; U-138MG, 3.17E−02 microM): 66.8% | Relative cell count (%) Mean (U-138MG; U-138MG, 3.17E−03 microM): 70.9% | Relative cell count (%) Mean (U-138MG; U-138MG, 3.18E−04 microM): 75.7% | Relative cell count (%) Mean (U-138MG; U-138MG, 3.18E−05 microM): 98.2% | pEC50 (SW579; Homo sapiens, 72 h, SW579, 3-day incubation, read-out: Cell Count EC50): 10.21 | GI50 (SW579; Homo sapiens, 72 h, SW579, 3-day incubation, read-out: Cell Count GI50): 0.152 nM | pIC50 (SW579; Homo sapiens, 72 h, SW579, 3-day incubation, read-out: Cell Count IC50): 9.44 | Cell Count Activity Area (SW579; SW579, scale 0-10): 5.31 | Relative cell count (%) Mean (SW579; 1.00E+00 microM): 35.3% | Relative cell count (%) Mean (SW579; 1.00E−01 microM): 35.8% | Relative cell count (%) Mean (SW579; 1.00E−02 microM): 42.8% | Relative cell count (%) Mean (SW579; 1.00E−03 microM): 44.2% | Relative cell count (%) Mean (SW579; 1.01E−04 microM): 63.2% | Relative cell count (%) Mean (SW579; 3.16E−01 microM): 37.9% | Relative cell count (%) Mean (SW579; 3.17E−02 microM): 38.4% | Relative cell count (%) Mean (SW579; 3.17E−03 microM): 44.6% | Relative cell count (%) Mean (SW579; 3.18E−04 microM): 48.4% | Relative cell count (%) Mean (SW579; 3.18E−05 microM): 78.0% | Relative cell count (%) Mean (Hs 852.T; 1.00E+00 microM): 67.7% | Relative cell count (%) Mean (Hs 852.T; 1.00E−01 microM): 82.5% | Relative cell count (%) Mean (Hs 852.T; 1.00E−02 microM): 92.9% | Relative cell count (%) Mean (Hs 852.T; 1.00E−03 microM): 96.5% | Relative cell count (%) Mean (Hs 852.T; 1.01E−04 microM): 106.1% | Relative cell count (%) Mean (Hs 852.T; 3.16E−01 microM): 78.0% | Relative cell count (%) Mean (Hs 852.T; 3.17E−02 microM): 87.7% | Relative cell count (%) Mean (Hs 852.T; 3.17E−03 microM): 100.5% | Relative cell count (%) Mean (Hs 852.T; 3.18E−04 microM): 105.1% | Relative cell count (%) Mean (Hs 852.T; 3.18E−05 microM): 99.0% | pEC50 (Hs 852.T; Homo sapiens, 72 h, 3-day incubation, read-out: Cell Count EC50): 6.47 | GI50 (Hs 852.T; Homo sapiens, 72 h, 3-day incubation, read-out: Cell Count GI50): 803 nM | pIC50 (Hs 852.T; Homo sapiens, 72 h, 3-day incubation, read-out: Cell Count IC50): < 6.00 | Cell Count Activity Area (Hs 852.T; scale 0-10): 1.22 | Cell Count Activity Area (AsPC-1; AsPC-1, scale 0-10): 2.50 | Relative cell count (%) Mean (AsPC-1; 1.00E+00 microM): 64.8% | Relative cell count (%) Mean (AsPC-1; 1.00E−01 microM): 74.0% | Relative cell count (%) Mean (AsPC-1; 1.00E−02 microM): 68.9% | Relative cell count (%) Mean (AsPC-1; 1.00E−03 microM): 81.7% | Relative cell count (%) Mean (AsPC-1; 1.01E−04 microM): 89.6% | Relative cell count (%) Mean (AsPC-1; 3.16E−01 microM): 67.9% | Relative cell count (%) Mean (AsPC-1; 3.17E−02 microM): 74.7% | Relative cell count (%) Mean (AsPC-1; 3.17E−03 microM): 77.8% | Relative cell count (%) Mean (AsPC-1; 3.18E−04 microM): 94.5% | Relative cell count (%) Mean (AsPC-1; 3.18E−05 microM): 99.5% | pEC50 (AsPC-1; Homo sapiens, ASPC1): 9.28 | pEC50 (AsPC-1; Homo sapiens, ASPC1, 72 h, read-out: Cell Count EC50): 9.28 | GI50 (AsPC-1; Homo sapiens, ASPC1, 72 h, read-out: Cell Count GI50): 8.07 nM | pIC50 (AsPC-1; Homo sapiens, ASPC1, 72 h, read-out: Cell Count IC50): < 6.00 | Relative cell count (%) Mean (786-O; 1.00E+00 microM): 37.4% | Relative cell count (%) Mean (786-O; 1.00E−01 microM): 44.8% | Relative cell count (%) Mean (786-O; 1.00E−02 microM): 52.1% | Relative cell count (%) Mean (786-O; 1.00E−03 microM): 61.1% | Relative cell count (%) Mean (786-O; 1.01E−04 microM): 88.5% | Relative cell count (%) Mean (786-O; 3.16E−01 microM): 43.9% | Relative cell count (%) Mean (786-O; 3.17E−02 microM): 46.5% | Relative cell count (%) Mean (786-O; 3.17E−03 microM): 60.0% | Relative cell count (%) Mean (786-O; 3.18E−04 microM): 77.4% | Relative cell count (%) Mean (786-O; 3.18E−05 microM): 100.6% | Cell Count Activity Area (786-O; 786-O, scale 0-10): 4.43 | pEC50 (786-O; Homo sapiens, 786-0, 72 h, 786-O, 3-day incubation, read-out: Cell Count EC50): 9.40 | GI50 (786-O; Homo sapiens, 786-0, 72 h, 786-O, 3-day incubation, read-out: Cell Count GI50): 1.91 nM | pIC50 (786-O; Homo sapiens, 786-0, 72 h, 786-O, 3-day incubation, read-out: Cell Count IC50): 8.39 | Cell Count Activity Area (CEM-C1; CEM-C1, scale 0-10): 3.52 | Relative cell count (%) Mean (CEM-C1; 1.00E+00 microM): 47.1% | Relative cell count (%) Mean (CEM-C1; 1.00E−01 microM): 53.2% | Relative cell count (%) Mean (CEM-C1; 1.00E−02 microM): 58.4% | Relative cell count (%) Mean (CEM-C1; 1.00E−03 microM): 68.7% | Relative cell count (%) Mean (CEM-C1; 1.01E−04 microM): 90.0% | Relative cell count (%) Mean (CEM-C1; 3.16E−01 microM): 48.9% | Relative cell count (%) Mean (CEM-C1; 3.17E−02 microM): 53.1% | Relative cell count (%) Mean (CEM-C1; 3.17E−03 microM): 62.4% | Relative cell count (%) Mean (CEM-C1; 3.18E−04 microM): 72.7% | Relative cell count (%) Mean (CEM-C1; 3.18E−05 microM): 94.0% | pEC50 (CEM-C1; Homo sapiens, 72 h, CEM-C1, 3-day incubation, read-out: Cell Count EC50): 9.30 | GI50 (CEM-C1; Homo sapiens, 72 h, CEM-C1, 3-day incubation, read-out: Cell Count GI50): 10.2 nM
